Laboratory results reported in ChEMBL document CHEMBL1135135, “Synthesis and cytotoxicity of 2alpha-amido docetaxel analogues” (Bioorg Med Chem Lett, 2002).

Key:
Format in all cases: functional, cell-based
Conditions in all cases: Homo sapiens
[1] = system: A549; test: Inhibitory activity against A549 lung cancer cell line
[2] = system: A549; test: Inhibitory activity against Taxol-resistant A549 lung cancer cell line
[3] = system: KB; test: Inhibitory activity against KB nasopharynx cancer cell line
[4] = system: KB; test: Inhibitory activity against Vincristine-resistant KB nasopharynx cancer cell line
[5] = system: MCF7; test: Inhibitory activity against Adriamycin-resistant MCF-7 breast cancer cell line
[6] = system: MCF7; test: Inhibitory activity against MCF-7 breast cancer cell line

IC50 [1]	IC50 [2]	IC50 [3]	IC50 [4]	IC50 [5]	IC50 [6]	Compound
> 100 nM	> 1000 nM	> 100 nM	> 1000 nM			CC(=O)O[C@H]1C(=O)[C@@]2(C)C([C@H](NC(=O)c3cccc(Cl)c3)[C@]3(O)C[C@H](OC(=O)[C@@H](O)[C@@H](NC(=O)OC(C)(C)C)c4ccccc4)C(C)=C1C3(C)C)[C@@](CO)(OC(C)=O)[C@@H](O)C[C@@H]2O (some centres undefined)
> 100 nM	> 1000 nM	> 100 nM	> 1000 nM			CC(=O)O[C@H]1C(=O)[C@@]2(C)C([C@H](NC(=O)c3ccc([N+](=O)[O-])cc3)[C@]3(O)C[C@H](OC(=O)[C@@H](O)[C@@H](NC(=O)OC(C)(C)C)c4ccccc4)C(C)=C1C3(C)C)[C@]1(OC(C)=O)CO[C@@H]1C[C@@H]2O (some centres undefined)
95 nM	1100 nM	78 nM	> 1000 nM	> 4500 nM	110 nM	CC(=O)O[C@H]1C(=O)[C@@]2(C)C([C@H](NC(=O)c3cccc(Cl)c3)[C@]3(O)C[C@H](OC(=O)[C@@H](O)[C@@H](NC(=O)OC(C)(C)C)c4ccccc4)C(C)=C1C3(C)C)[C@]1(OC(C)=O)CO[C@@H]1C[C@@H]2O (some centres undefined)
12 nM	960 nM	9.1 nM	1700 nM	> 6000 nM	5.5 nM	CC(=O)O[C@H]1C(=O)[C@@]2(C)[C@H]([C@H](OC(=O)c3ccccc3)[C@]3(O)C[C@H](OC(=O)[C@H](O)[C@@H](NC(=O)c4ccccc4)c4ccccc4)C(C)=C1C3(C)C)[C@]1(OC(C)=O)CO[C@@H]1C[C@@H]2O [PACLITAXEL]
83 nM	1000 nM	74 nM	1100 nM	> 4600 nM	73 nM	COc1cccc(C(=O)N[C@H]2C3[C@](C)(C(=O)[C@H](OC(C)=O)C4=C(C)[C@@H](OC(=O)[C@@H](O)[C@@H](NC(=O)OC(C)(C)C)c5ccccc5)C[C@]2(O)C4(C)C)[C@@H](O)C[C@H]2OC[C@@]32OC(C)=O)c1 (some centres undefined)
> 100 nM	> 1000 nM	> 100 nM	> 1000 nM			CC(=O)O[C@H]1C(=O)[C@@]2(C)C([C@H](NC(=O)c3ccc(Cl)cc3)[C@]3(O)C[C@H](OC(=O)[C@@H](O)[C@@H](NC(=O)OC(C)(C)C)c4ccccc4)C(C)=C1C3(C)C)[C@]1(OC(C)=O)CO[C@@H]1C[C@@H]2O (some centres undefined)
250 nM		150 nM				CC(=O)O[C@H]1C(=O)[C@@]2(C)C([C@H](NC(=O)c3ccccc3)[C@]3(O)C[C@H](OC(=O)[C@@H](O)[C@@H](NC(=O)OC(C)(C)C)c4ccccc4)C(C)=C1C3(C)C)[C@]1(OC(C)=O)CO[C@@H]1C[C@@H]2O (some centres undefined)
> 100 nM	> 1000 nM	> 100 nM	> 1000 nM			CC(=O)O[C@H]1C(=O)[C@@]2(C)C([C@H](NC(=O)c3ccccc3)[C@]3(O)C[C@H](OC(=O)[C@@H](O)[C@@H](NC(=O)OC(C)(C)C)c4ccccc4)C(C)=C1C3(C)C)[C@@](CO)(OC(C)=O)[C@@H](O)C[C@@H]2O (some centres undefined)
4.1 nM	98 nM	4.4 nM	200 nM	4200 nM	7.9 nM	CC(=O)O[C@@]12CO[C@@H]1C[C@H](O)[C@@]1(C)C(=O)[C@H](O)C3=C(C)[C@@H](OC(=O)[C@H](O)[C@@H](NC(=O)OC(C)(C)C)c4ccccc4)C[C@@](O)([C@@H](OC(=O)c4ccccc4)[C@H]21)C3(C)C [DOCETAXEL]
> 100 nM	> 1000 nM	> 100 nM	> 1000 nM			COc1ccc(C(=O)N[C@H]2C3[C@](C)(C(=O)[C@H](OC(C)=O)C4=C(C)[C@@H](OC(=O)[C@@H](O)[C@@H](NC(=O)OC(C)(C)C)c5ccccc5)C[C@]2(O)C4(C)C)[C@@H](O)C[C@H]2OC[C@@]32OC(C)=O)cc1 (some centres undefined)
> 100 nM	> 1000 nM	> 100 nM	> 1000 nM			CC(=O)O[C@H]1C(=O)[C@@]2(C)C([C@H](NC(=O)OCc3ccccc3)[C@]3(O)C[C@H](OC(=O)[C@@H](O)[C@@H](NC(=O)OC(C)(C)C)c4ccccc4)C(C)=C1C3(C)C)[C@]1(OC(C)=O)CO[C@@H]1C[C@@H]2O (some centres undefined)
> 100 nM	> 1000 nM	> 100 nM	> 1000 nM			CC(=O)O[C@H]1C(=O)[C@@]2(C)C([C@H](NC(=O)c3ccc(Cl)cc3)[C@]3(O)C[C@H](OC(=O)[C@@H](O)[C@@H](NC(=O)OC(C)(C)C)c4ccccc4)C(C)=C1C3(C)C)[C@@](CO)(OC(C)=O)[C@@H](O)C[C@@H]2O (some centres undefined)
